Experiments:
[1] = xn = mol fraction of the nth substance listed; details: 99 kPa, Liquid; for viscosity: Capillary tube (Ostwald / Ubbelohde) method; for speed of sound: Frequency=3 MHz, Sing-around technique in a fixed-path interferometer; for mass density: Vibrating tube method
[2] = refractive index (Na D-line) (dimensionless); xn = mol fraction of the nth substance listed; details: 99 kPa, Liquid, Standard Abbe refractometry

CC(=O)N(C)C [N,N-dimethylethanamide] + CCO
Details | mass density, [1] [kg/m3] | refractive index, [2] | speed of sound, [1] [m/s] | viscosity, [1] [mPa·s]
283.15 K, x1 = 0.0524 | 811.441 | 1.37246 | 1225.3 | 1.369
283.15 K, x1 = 0.1071 | 824.492 | 1.37916 | 1254.6 | 1.306
283.15 K, x1 = 0.2064 | 845.481 | 1.39001 | 1298 | 1.229
283.15 K, x1 = 0.3022 | 863.302 | 1.39925 | 1334.9 | 1.187
283.15 K, x1 = 0.4057 | 880.337 | 1.40801 | 1369.6 | 1.166
283.15 K, x1 = 0.5032 | 894.71 | 1.41538 | 1399.5 | 1.161
283.15 K, x1 = 0.6016 | 907.87 | 1.42196 | 1427.3 | 1.16
283.15 K, x1 = 0.7065 | 920.678 | 1.42823 | 1454 | 1.164
283.15 K, x1 = 0.8013 | 931.158 | 1.43325 | 1476.5 | 1.17
283.15 K, x1 = 0.9021 | 941.312 | 1.43826 | 1498.3 | 1.172
283.15 K, x1 = 0.9529 | 946.061 | 1.44059 | 1508.5 | 1.169
283.15 K, x1 = 1 | 950.131 | 1.44273 | 1516.8 | 1.168
298.15 K, x1 = 0.0524 | 798.435 | 1.36619 | 1172.1 | 1.038
298.15 K, x1 = 0.1071 | 811.331 | 1.37281 | 1199.9 | 1.003
298.15 K, x1 = 0.2064 | 832.087 | 1.38351 | 1242.5 | 0.9558
298.15 K, x1 = 0.3022 | 849.767 | 1.39264 | 1277.4 | 0.9319
298.15 K, x1 = 0.4057 | 866.689 | 1.40131 | 1312.1 | 0.9212
298.15 K, x1 = 0.5032 | 881.006 | 1.40863 | 1341 | 0.9169
298.15 K, x1 = 0.6016 | 894.141 | 1.41518 | 1367.9 | 0.921
298.15 K, x1 = 0.7065 | 906.822 | 1.42135 | 1394.4 | 0.9259
298.15 K, x1 = 0.8013 | 917.351 | 1.4264 | 1415.7 | 0.9311
298.15 K, x1 = 0.9021 | 927.481 | 1.43136 | 1437.6 | 0.9309
298.15 K, x1 = 0.9529 | 932.213 | 1.43367 | 1446.3 | 0.9307
298.15 K, x1 = 1 | 936.289 | 1.43579 | 1453.7 | 0.9299
313.15 K, x1 = 0.0524 | 785.68 | 1.35974 | 1120.6 | 0.8029
313.15 K, x1 = 0.1071 | 798.43 | 1.36632 | 1147.6 | 0.7849
313.15 K, x1 = 0.2064 | 818.908 | 1.37691 | 1188.7 | 0.7611
313.15 K, x1 = 0.3022 | 836.413 | 1.38598 | 1222.6 | 0.7493
313.15 K, x1 = 0.4057 | 853.186 | 1.39461 | 1256.3 | 0.7462
313.15 K, x1 = 0.5032 | 867.418 | 1.40189 | 1284.2 | 0.7469
313.15 K, x1 = 0.6016 | 880.488 | 1.40843 | 1310.5 | 0.7516
313.15 K, x1 = 0.7065 | 893.143 | 1.41463 | 1336.3 | 0.7581
313.15 K, x1 = 0.8013 | 903.56 | 1.41962 | 1358.5 | 0.7623
313.15 K, x1 = 0.9021 | 913.657 | 1.4246 | 1378.5 | 0.7643
313.15 K, x1 = 0.9529 | 918.346 | 1.42688 | 1386 | 0.7651
313.15 K, x1 = 1 | 922.429 | 1.42901 | 1393.3 | 0.7644
